Article PMC10541198, “Specific quinone reductase 2 inhibitors reduce metabolic burden and reverse Alzheimer’s disease phenotype in mice” (The Journal of Clinical Investigation, 2023)
“And” between values parts separate entries of the source, which are not always exact repeats. Equal entries are not always repeated. “Also recorded” adds a separate entry of the source.

Tests used:
[1] = Solubility in water / saline; type: physicochemical
[2] = test system: 5xFAD mice; experiment: General wellbeing / adverse effects during 1 month ingestion; type: in vivo, mouse; conditions: 8-to-9-month-old 5xFAD, both sexes, 50 mg/kg in drinking water, month-long
Method: We next aimed to test the effect of QR2 inhibition in AD model mice using YB-537, taking advantage of its extremely high specificity, solubility, and lack of toxicity. First, we determined YB-537 pharmacokinetics (PK) and oral bioavailability and assessed any acute observable toxicity in mice. […] We therefore opted to chronically deliver YB-537 to AD-model mice via their drinking water, so they may freely ingest the inhibitor at 50 mg/kg, with minimal intervention or trauma, for 1 month. We chose 9-month-old 5xFAD ([27]) male and female mice in double-blind experiments, so that well-progressed symptoms and pathologies would be present, to mimic clinically relevant cases in human patients ([35]), as has been previously described in this mouse model. Other than an improvement in nest quality ([36]) over time seen in animals receiving YB-537 (starting at age 8 months and ending at age 9 months), no changes to general physical parameters or wellbeing were observed over the 1 month of YB-537 ingestion (Supplemental Figure 6, A–J). […] Since learning in this paradigm was slow, and performance was poor even following 6 days of training (using 4 learning trials a day), a test day was not carried out and instead only the learning rate was measured. […]

[3] = test system: Sprague Dawley rats; experiment: Incidental novel taste learning, microinjection to anterior insular cortex; type: in vivo, rat; conditions: 1 μL of 20 μM to aIC
Method: In order to evaluate the efficacy of some of the leading QR2is in vivo, we carried out double-blind experiments using 2 different modalities (Supplemental Methods), measuring memory that is dependent on different brain areas. First, cortical memory was tested using incidental novel taste learning (see Methods), in which an unfamiliar, but palatable and safe, taste is given for the first time, and the memory for this newly learned taste is then assessed 2 days later. This is done by measuring the volume of the taste consumed upon subsequent exposure to it ([32]) (Figure 4A). […] Next, hippocampal-dependent learning was evaluated using delay fear conditioning (DFC; see Methods) ([33]). […] In order to evaluate any possible effect of acute QR2i microinjection on metabolic stress in the mouse brain, ISR activation was measured by quantifying total and phosphorylated eukaryotic initiation factor 2 α (eIF2α) levels (Supplemental Figure 3A) and lipid peroxidation product, 4-hydroxynonenal (4-HNE; Supplemental Figure 3B), by immunoblot 3 hours after the injection.
Rats were taught to drink from 2 pipettes each filled with 10 mL of water during a 20 minute period, over 3 days. […] The memory for the novel taste was then assessed after 20 minutes of liquid consumption by calculating a preference index as follows: (novel taste consumed/[novel taste consumed+water consumed]) × 100 ([32], [56]). […]

SMILES | solubility in water [1] | solubility in saline vehicle ([1]; PK formulations 2 and 10 mg/ml, HCl salt) | adverse effects of chronic ingestion [2] | NaCl preference (individual rats) [3]
Cc1ccc(-c2cn3cccc(C)c3n2)cc1S(=O)(=O)N1CCNCC1 [YB-537] | complete solution; also recorded: water soluble | fully dissolved | no adverse effects were seen | –
Cc1ccc(-c2cn3cccc(C)c3n2)cc1S(=O)(=O)N1CCCC1 [YB-808] | – | – | – | 38.6905 and 81.6144 and 53.3708 and 75.5102 and 61.3924 and 79.4286 and 85.6322 and 50.9317 and 62.1118 and 87.6289 and 81.5476 and 81.8182 and 84.5161 and 50.3067 and 72.807 and 50.2703 and 76.5766 and 61.9048
